This is an account of results in US9795607B2, “Substituted pyrrolopyrimidine compounds, compositions thereof, and methods of treatment therewith” (Signal Pharmaceutical, LLC, priority 2013, dated 2017).

Molecules are shown by their SMILES. Some results are limits rather than exact numbers.

One assay relates to Triple negative breast cancer cell line CAL51. In words: Cell Titer Glo proliferation assay, CAL51. The following applies: Homo sapiens, CAL-51; CAL51 cell proliferation, Cell Titer Glo; read-out: Act. Level. It is filed as cell-based. The method, then: Cell Titer Glo Proliferation Assay.
Triple negative breast cancer cell line CAL51 was purchased from DSMZ. […] Allcell lines were maintained in growth media consisting of 90% high glucose Dulbecco's Modified Eagle Medium or RPMI1640 (Invitrogen), 10% fetal bovine serum (Hyclone), and 2 mM L-glutamine (Invitrogen). […] After overnight culture, compound stock (30 mM) was diluted serially in DMSO, further diluted in growth media, and was added to each well as a 10× concentrated solution in a volume of 11 μL, mixed, and allowed to incubate with cells. The compound vehicle (DMSO) was maintained at a final concentration of 0.2% in all wells. After 72 h, 100 μL of Cell Titer Glo solution (Promega) was added to each well of the 96-well plate. The plate was placed on a shaker for 2 minutes. After 10 minutes incubation, the luminescence signal was detected with Envision microplate reader (Perkin Elmer).
(In ATP-based viability assays light output follows the ATP content of the culture.)
With `CNC(=O)c1ccc(Nc2nc(OC3CCC(C)(O)CC3)c3c(-c4ccc5nc(C)oc5c4)c[nH]c3n2)c(OC)c1` (stereo not drawn) [Example 205, 4-(4-((1r,4r)-4-hydroxy-4-methylcyclohexyloxy)-5-(2-methylbenzo[d]oxazol-6-yl)-7H-pyrrolo[2,3-d]pyrimidin-2-ylamino)-3-methoxy-N-methylbenzamide], the IC50 was less than 0.1 µM. The same measure, in the same setting: as for `CNC(=O)c1ccc(Nc2nc(OC3CC3)c3c(-c4ccn(C)n4)c[nH]c3n2)c(OC)c1` [Example 218, 4-(4-cyclopropoxy-5-(1-methyl-1H-pyrazol-3-yl)-7H-pyrrolo[2,3-d]pyrimidin-2-ylamino)-3-methoxy-N-methylbenzamide], the figure is 1 to 10 µM. Still for that read-out and setting: to `CNC(=O)c1ccc(Nc2nc(OC3CCCC3)c3c(-c4ccc(C(=O)OC)cc4)c[nH]c3n2)c(OC)c1` [Example 318, methyl 4-(4-(cyclopentyloxy)-2-(2-methoxy-4-(methylcarbamoyl)phenylamino)-7H-pyrrolo[2,3-d]pyrimidin-5-yl)benzoate] belongs 1 to 10 µM; to `CNC(=O)c1ccc(Nc2nc(OC3CCCC3)c3c(-c4ccc(F)cc4C)c[nH]c3n2)c(OC)c1` [Example 319, 4-(4-(cyclopentyloxy)-5-(4-fluoro-2-methylphenyl)-7H-pyrrolo[2,3-d]pyrimidin-2-ylamino)-3-methoxy-N-methylbenzamide], 1 to 10 µM.

On to `CNC(=O)c1ccc(Nc2nc(OC3CCCC3)c3c(-c4ccc(OC)cc4OC)c[nH]c3n2)c(OC)c1` [Example 320, 4-(4-(cyclopentyloxy)-5-(2,4-dimethoxyphenyl)-7H-pyrrolo[2,3-d]pyrimidin-2-ylamino)-3-methoxy-N-methylbenzamide], for which the IC50 lay within 1 to 10 µM.

Take `CNC(=O)c1ccc(Nc2nc(OC3CCCC3)c3c(-c4c(C)noc4C)c[nH]c3n2)c(OC)c1` [Example 321, 4-(4-(cyclopentyloxy)-5-(3,5-dimethylisoxazol-4-yl)-7H-pyrrolo[2,3-d]pyrimidin-2-ylamino)-3-methoxy-N-methylbenzamide]: the IC50 is 1 to 10 µM. The same measure, in the same setting: as for `CNC(=O)c1ccc(Nc2nc(OC3CCCC3)c3c(-c4cccc(N(C)C)c4)c[nH]c3n2)c(OC)c1` [Example 322, 4-(4-(cyclopentyloxy)-5-(3-(dimethylamino)phenyl)-7H-pyrrolo[2,3-d]pyrimidin-2-ylamino)-3-methoxy-N-methylbenzamide], the figure is 0.4 to 1 µM. The same measure, in the same setting: to `CNC(=O)c1ccc(Nc2nc(OC3CCCC3)c3c(-c4cccc(O)c4)c[nH]c3n2)c(OC)c1` [Example 323, 4-(4-(cyclopentyloxy)-5-(3-hydroxyphenyl)-7H-pyrrolo[2,3-d]pyrimidin-2-ylamino)-3-methoxy-N-methylbenzamide] belongs less than 0.1 µM. Still for that read-out and setting: as for `CNC(=O)c1ccc(Nc2nc(OC3CCCC3)c3c(-c4cccc(C#N)c4)c[nH]c3n2)c(OC)c1` [Example 324, 4-(5-(3-cyanophenyl)-4-(cyclopentyloxy)-7H-pyrrolo[2,3-d]pyrimidin-2-ylamino)-3-methoxy-N-methylbenzamide], the figure is 1 to 10 µM; as for `CNC(=O)c1ccc(Nc2nc(OC3CCOCC3)c3c(-c4cncc(OC)c4)c[nH]c3n2)c(OC)c1` [Example 325, 3-methoxy-4-(5-(5-methoxypyridin-3-yl)-4-(tetrahydro-2H-pyran-4-yloxy)-7H-pyrrolo[2,3-d]pyrimidin-2-ylamino)-N-methylbenzamide], 0.1 to 0.4 µM; as for `CNC(=O)c1ccc(Nc2nc(OCCOC)c3c(-c4cnn(C)c4)c[nH]c3n2)c(OC)c1` [Example 326, 3-methoxy-4-(4-(2-methoxyethoxy)-5-(1-methyl-1H-pyrazol-4-yl)-7H-pyrrolo[2,3-d]pyrimidin-2-ylamino)-N-methylbenzamide], less than 0.1 µM. On to `COc1cc(C(=O)NCCO)ccc1Nc1nc(OC2CCOCC2)c2c(-c3cnn(C)c3)c[nH]c2n1` [Example 327, N-(2-hydroxyethyl)-3-methoxy-4-(5-(1-methyl-1H-pyrazol-4-yl)-4-(tetrahydro-2H-pyran-4-yloxy)-7H-pyrrolo[2,3-d]pyrimidin-2-ylamino)benzamide], for which the IC50 was in the range of 0.1 to 0.4 µM. With `CNC(=O)c1ccc(Nc2nc(O[C@H]3CCOC3)c3c(-c4cnn(C)c4)c[nH]c3n2)c(OC)c1` [Example 328, (S)-3-methoxy-N-methyl-4-(5-(1-methyl-1H-pyrazol-4-yl)-4-(tetrahydrofuran-3-yloxy)-7H-pyrrolo[2,3-d]pyrimidin-2-ylamino)benzamide], the IC50 is less than 0.1 µM. The same measure, in the same setting: to `CNC(=O)c1ccc(Nc2nc(OC3CCCC3)c3c(-c4cc(F)c5nc(C)oc5c4)c[nH]c3n2)c(OC)c1` [Example 330, 4-(4-(cyclopentyloxy)-5-(4-fluoro-2-methylbenzo[d]oxazol-6-yl)-7H-pyrrolo[2,3-d]pyrimidin-2-ylamino)-3-methoxy-N-methylbenzamide] belongs 0.1 to 0.4 µM.

Turning to `CNC(=O)c1ccc(-c2c[nH]c3nc(Nc4ccc(C(=O)NCCO)cc4OC)nc(OC4CCC4)c23)cc1` [Example 331, 4-(4-cyclobutoxy-5-(4-(methylcarbamoyl)phenyl)-7H-pyrrolo[2,3-d]pyrimidin-2-ylamino)-N-(2-hydroxyethyl)-3-methoxybenzamide], the IC50 fell in the range of 0.1 to 0.4 µM. Still for that read-out and setting: as for `CNC(=O)c1ccc(-c2c[nH]c3nc(Nc4ccc(C(=O)NC5COC5)cc4C)nc(OC4CCC4)c23)cc1` [Example 332, 4-(4-cyclobutoxy-5-(4-(methylcarbamoyl)phenyl)-7H-pyrrolo[2,3-d]pyrimidin-2-ylamino)-3-methyl-N-(oxetan-3-yl)benzamide], the figure is less than 0.1 µM. Turning to `CNC(=O)c1ccc(-c2c[nH]c3nc(Nc4ccc(C(=O)NC5COC5)cc4Cl)nc(OC4CCC4)c23)cc1` [Example 333, 3-chloro-4-(4-cyclobutoxy-5-(4-(methylcarbamoyl)phenyl)-7H-pyrrolo[2,3-d]pyrimidin-2-ylamino)-N-(oxetan-3-yl)benzamide], the IC50 is less than 0.1 µM. Same read-out and setting: to `COc1cc(C(=O)N2CC2C)ccc1Nc1nc(OC2CCCC2)c2c(-c3ccc4nc(C)oc4c3)c[nH]c2n1` [Example 335, (R)-(4-(4-(cyclopentyloxy)-5-(2-methylbenzo[d]oxazol-6-yl)-7H-pyrrolo[2,3-d]pyrimidin-2-ylamino)-3-methoxyphenyl)(2-methylaziridin-1-yl)methanone] belongs 0.4 to 1 µM. The same measure, in the same setting: to `CNC(=O)c1ccc(-c2c[nH]c3nc(Nc4ccc(C(=O)N5CC5)cc4OC)nc(O[C@H]4CC[C@@](C)(O)CC4)c23)cc1` [Example 336, 4-(2-(4-(aziridine-1-carbonyl)-2-methoxyphenylamino)-4-((1s,4s)-4-hydroxy-4-methylcyclohexyloxy)-7H-pyrrolo[2,3-d]pyrimidin-5-yl)-N-methylbenzamide] belongs less than 0.1 µM; to `CNC(=O)c1ccc(-c2c[nH]c3nc(Nc4ccc(C(=O)NC5COC5)cc4OC)nc(OC4CCC(C)(O)CC4)c23)cc1` (stereo not drawn) [Example 337, 4-(4-((1s,4s)-4-hydroxy-4-methylcyclohexyloxy)-5-(4-(methylcarbamoyl)phenyl)-7H-pyrrolo[2,3-d]pyrimidin-2-ylamino)-3-methoxy-N-(oxetan-3-yl)benzamide], less than 0.1 µM; to `COc1cc(C(=O)N2CC2)ccc1Nc1nc(OC)c2c(-c3ccncc3)c[nH]c2n1` [Example 338, aziridin-1-yl(3-methoxy-4-(4-methoxy-5-(pyridin-4-yl)-7H-pyrrolo[2,3-d]pyrimidin-2-ylamino)phenyl)methanone], 0.4 to 1 µM. The same measure, in the same setting: to `CNC(=O)c1ccc(-c2c[nH]c3nc(Nc4cn(C)nc4C)nc(OC4CCC4)c23)cc1` [Example 340, 4-(4-cyclobutoxy-2-(1,3-dimethyl-1H-pyrazol-4-ylamino)-7H-pyrrolo[2,3-d]pyrimidin-5-yl)-N-methylbenzamide] belongs less than 0.1 µM; to `CNC(=O)c1ccc(-c2c[nH]c3nc(Nc4ccc(C(=O)NC5COC5)cc4OC)nc(OC4CC(C#N)C4)c23)cc1` (stereo not drawn) [Example 341, 4-(4-(3-cyanocyclobutoxy)-5-(4-(methylcarbamoyl)phenyl)-7H-pyrrolo[2,3-d]pyrimidin-2-ylamino)-3-methoxy-N-(oxetan-3-yl)benzamide], less than 0.1 µM. `COc1cc(C(=O)NC2COC2)ccc1Nc1nc(O[C@H]2CCOC2)c2c(-c3ccc4nc(C)oc4c3)c[nH]c2n1` [Example 343, (S)-3-methoxy-4-(5-(2-methylbenzo[d]oxazol-6-yl)-4-(tetrahydrofuran-3-yloxy)-7H-pyrrolo[2,3-d]pyrimidin-2-ylamino)-N-(oxetan-3-yl)benzamide]: the IC50 is less than 0.1 µM.

In the case of `CNC(=O)c1ccc(-c2c[nH]c3nc(Nc4ccc(C(=O)NC5COC5)cc4OC)nc(OC4CC4)c23)cc1` [Example 344, 4-(4-cyclopropoxy-5-(4-(methylcarbamoyl)phenyl)-7H-pyrrolo[2,3-d]pyrimidin-2-ylamino)-3-methoxy-N-(oxetan-3-yl)benzamide], the IC50 is 0.1 to 0.4 µM. For the compound `CNC(=O)c1ccc(-c2c[nH]c3nc(Nc4ccc(C(=O)NC5COC5)cc4OC)nc(OC4CC(F)(F)C4)c23)cc1` [Example 345, 4-(4-(3,3-difluorocyclobutoxy)-5-(4-(methylcarbamoyl)phenyl)-7H-pyrrolo[2,3-d]pyrimidin-2-ylamino)-3-methoxy-N-(oxetan-3-yl)benzamide], the IC50 is less than 0.1 µM.

The same assay, now with this note: Homo sapiens, CAL-51; CAL51 cell proliferation; activity level class of IC50; read-out: Act. Level.
Turning to `CNC(=O)c1ccc(Nc2nc(OC3CCC(O)CC3)c3c(-c4ccc5nc(C)oc5c4)c[nH]c3n2)c(OC)c1` (stereo not drawn) [Example 137, 4-(4-((1r,4r)-4-hydroxycyclohexyloxy)-5-(2-methylbenzo[d]oxazol-6-yl)-7H-pyrrolo[2,3-d]pyrimidin-2-ylamino)-3-methoxy-N-methylbenzamide], the IC50 was less than 0.1 µM.
